In brackets after ≈: the same amount, converted by molar mass.
T1: sDacC (sPBP5/6) (Acinetobacter baumannii, UniProt G1C735)
T1 sequence (G1C735 20-367): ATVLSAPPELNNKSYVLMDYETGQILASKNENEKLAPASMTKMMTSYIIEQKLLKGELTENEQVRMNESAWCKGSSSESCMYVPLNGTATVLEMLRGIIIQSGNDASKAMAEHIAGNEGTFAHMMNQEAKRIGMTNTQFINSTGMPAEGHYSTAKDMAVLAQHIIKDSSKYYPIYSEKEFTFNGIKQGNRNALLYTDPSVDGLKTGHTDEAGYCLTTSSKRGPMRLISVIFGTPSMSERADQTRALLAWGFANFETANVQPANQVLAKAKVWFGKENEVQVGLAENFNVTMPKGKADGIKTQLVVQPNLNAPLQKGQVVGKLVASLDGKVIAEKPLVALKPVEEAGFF

T2: sDacD (sPBP6b) (Acinetobacter baumannii, UniProt A0ABX6CI93)
T2 sequence (A0ABX6CI93 22-409): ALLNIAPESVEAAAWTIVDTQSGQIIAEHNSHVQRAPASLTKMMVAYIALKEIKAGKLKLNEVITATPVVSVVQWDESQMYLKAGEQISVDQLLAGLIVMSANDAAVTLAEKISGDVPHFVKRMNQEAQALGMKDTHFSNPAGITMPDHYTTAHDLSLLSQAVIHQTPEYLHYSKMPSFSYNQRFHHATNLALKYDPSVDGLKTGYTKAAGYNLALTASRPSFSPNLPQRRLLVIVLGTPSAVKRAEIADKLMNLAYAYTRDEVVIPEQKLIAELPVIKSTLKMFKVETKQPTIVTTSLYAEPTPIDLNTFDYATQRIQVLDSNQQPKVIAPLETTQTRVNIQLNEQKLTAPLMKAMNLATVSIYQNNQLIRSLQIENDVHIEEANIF

B1: sDacC (sPBP5/6) (Acinetobacter baumannii) (protein)
chain: T1 sequence (G1C735 20-367)

Experiments:
[1] = tested on: A. baumannii AB19606 WT (19606); test: microbe, parasite or virus in culture; set-up: species or system Acinetobacter baumannii AB19606; conditions: Acinetobacter baumannii, read-out: MIC
[2] = molecular target: T1, sDacC (sPBP5/6); test: Bocillin FL competition, SDS-PAGE fluorescence; format: binding
[3] = molecular target: T2, sDacD (sPBP6b); test: Bocillin FL competition, SDS-PAGE fluorescence; format: binding
[4] = molecular target: T1, sDacC (sPBP5/6); test: biochemical
[5] = molecular target: T2, sDacD (sPBP6b); test: biochemical
[6] = substrate: CC1(C)S[C@@H]2[C@H](NC(=O)Cc3ccccc3)C(=O)N2[C@H]1C(=O)O; test: purified protein; conditions: 10 mM phosphate, pH 7.4, 30 °C
[7] = substrate: CC1(C)S[C@@H]2[C@H](NC(=O)[C@H](C(=O)O)c3ccsc3)C(=O)N2[C@H]1C(=O)O; test: purified protein; conditions: 10 mM phosphate, pH 7.4, 30 °C
[8] = substrate: CO/N=C(\C(=O)N[C@@H]1C(=O)N2C(C(=O)O)=C(COC(C)=O)CS[C@H]12)c1csc(N)n1; test: purified protein; conditions: 10 mM phosphate, pH 7.4, 30 °C
[9] = substrate: C[C@@H](O)[C@H]1C(=O)N2C(C(=O)O)=C(SCCN=CN)C[C@H]12; test: purified protein; conditions: 10 mM phosphate, pH 7.4, 30 °C
[10] = substrate: CC(C)(O/N=C(\C(=O)N[C@@H]1C(=O)N2C(C(=O)[O-])=C(C[n+]3ccccc3)CS[C@H]12)c1csc(N)n1)C(=O)O; test: purified protein, by the assay type; conditions: pH 7.4; 30.0 °C
[11] = substrate: C[C@@H](O)[C@H]1C(=O)N2C(C(=O)O)=C(S[C@@H]3CN[C@H](C(=O)N(C)C)C3)[C@H](C)[C@H]12; test: purified protein, by the assay type; conditions: pH 7.4; 30.0 °C
[12] = substrate: C[C@@H](O)[C@H]1C(=O)N2C(C(=O)O)=C(S[C@@H]3CN[C@H](CNS(N)(=O)=O)C3)[C@H](C)[C@H]12; test: purified protein, by the assay type; conditions: pH 7.4; 30.0 °C
[13] = substrate: NC(=O)c1cc[n+](CC2=C(C(=O)O)N3C(=O)[C@@H](NC(=O)[C@@H](c4ccccc4)S(=O)(=O)[O-])[C@H]3SC2)cc1; test: purified protein, by the assay type; conditions: pH 7.4; 30.0 °C

Molecule	MIC [1] [µg/mL]	IC50 [2] [µM]	IC50 [3] [µM]	also measured
CC1(C)S[C@@H]2[C@H](NC(=O)[C@H](N)c3ccc(O)cc3)C(=O)N2[C@H]1C(=O)O [AMX, Amoxicillin]	1000 (≈ 2740 µM)			
CC(C)(O/N=C(\C(=O)N[C@@H]1C(=O)N2C(C(=O)[O-])=C(C[n+]3ccccc3)CS[C@H]12)c1csc(N)n1)C(=O)O [CAZ, Ceftazidime]	16 (≈ 29.3 µM)			
C=CC1=C(C(=O)O)N2C(=O)[C@@H](NC(=O)/C(=N\OCC(=O)O)c3csc(N)n3)[C@H]2SC1 [Cefixime]		20.9	52.8	
CO/N=C(\C(=O)N[C@@H]1C(=O)N2C(C(=O)O)=C(COC(C)=O)CS[C@H]12)c1csc(N)n1 [Cefotaxime]	64 (≈ 141 µM)			
NC(=O)c1cc[n+](CC2=C(C(=O)[O-])N3C(=O)[C@@H](NC(=O)[C@@H](c4ccccc4)S(=O)(=O)O)[C@H]3SC2)cc1 [Cefsulodin]	250 (≈ 469 µM)	6.3	8.6	
CO/N=C(\C(=O)N[C@@H]1C(=O)N2C(C(=O)O)=C(COC(N)=O)CS[C@H]12)c1ccco1 [Cefuroxime]	500 (≈ 1180 µM)	12.9	161	
O=C(O)[C@H]1/C(=C/CO)O[C@@H]2CC(=O)N21 [Clavulanic acid]			5.8	
C[C@@H](O)[C@H]1C(=O)N2C(C(=O)O)=C(S[C@@H]3CN[C@H](CNS(N)(=O)=O)C3)[C@H](C)[C@H]12 [Doripenem]	1.6 (≈ 3.8 µM)	9.2	1.7	
CO[C@@]1(NC(=O)Cc2cccs2)C(=O)N2C(C(=O)O)=C(COC(N)=O)CS[C@@H]21 [FOX, Cefoxitin]	500 (≈ 1170 µM)			
C[C@@H](O)[C@H]1C(=O)N2C(C(=O)O)=C(S[C@@H]3CN[C@H](C(=O)N(C)C)C3)[C@H](C)[C@H]12 [Meropenem]	1.6 (≈ 4.17 µM)	15.7	2.7	
Cc1onc(-c2ccccc2)c1C(=O)N[C@@H]1C(=O)N2[C@@H]1SC(C)(C)[C@@H]2C(=O)O [Oxacillin]	500 (≈ 1250 µM)	95.9	417	
CCN1CCN(C(=O)N[C@@H](C(=O)N[C@@H]2C(=O)N3[C@@H]2SC(C)(C)[C@@H]3C(=O)O)c2ccccc2)C(=O)C1=O [PIP, Piperacillin]	500 (≈ 966 µM)			IC50 [4]: 539 µM; IC50 [5]: 3280 µM
CC1(C)S[C@@H]2[C@H](NC(=O)Cc3ccccc3)C(=O)N2[C@H]1C(=O)O [Penicillin G]	> 2000			
CC1(C)[C@H](C(=O)O)N2C(=O)C[C@H]2S1(=O)=O [Sulbactam]			3.8	IC50 [4]: 184 µM
C[C@]1(Cn2ccnn2)[C@H](C(=O)O)N2C(=O)C[C@H]2S1(=O)=O [Tazobactam]				IC50 [4]: 1830 µM; IC50 [5]: 1590 µM
CC1(C)S[C@@H]2[C@H](NC(=O)[C@H](C(=O)O)c3ccsc3)C(=O)N2[C@H]1C(=O)O [Ticarcillin]	16 (≈ 41.6 µM)			
B1				Km [6]: 8.2 ± 1.4 µM; kcat [6]: 65.81 ± 12.5 s⁻¹; Km [7]: 12.47 ± 2.5 µM; kcat [7]: 93.31 ± 9.0 s⁻¹; Km [8]: 6.09 ± 0.9 µM; kcat [8]: 7.04 ± 1.1 s⁻¹; Km [9]: 3.75 ± 0.4 µM; kcat [9]: 7.52 ± 0.5 s⁻¹; Km [10]: 21.09 µM; kcat [10]: 8.36 s⁻¹; kcat/Km [10]: 390000 M⁻¹ s⁻¹; Km [11]: 12.19 µM; kcat [11]: 10 s⁻¹; kcat/Km [11]: 820000 M⁻¹ s⁻¹; Km [12]: 17.39 µM; kcat [12]: 5.35 s⁻¹; kcat/Km [12]: 310000 M⁻¹ s⁻¹; Km [13]: 21.21 µM; kcat [13]: 12.2 s⁻¹; kcat/Km [13]: 570000 M⁻¹ s⁻¹

Source: article doi:10.1101/2024.07.16.603720v1 (biorxiv, 2024)
